For 57 compounds, melting point results are on record in patent US7132547B2, “Preventives/remedies for urinary disturbance” (priority 2001, dated 2006).

Structures are written as SMILES.

A word on the melting point: it is the temperature of the solid-liquid transition.

For `CN(CCCCC(=O)c1ccc2[nH]c(=O)[nH]c2c1)CCc1ccccc1.Cl`, the melting point amounted to 240 °C. As to `CN(CCCCC(=O)c1ccc2c(c1)n(C)c(=O)n2C)CCc1ccccc1.Cl`, the melting point is 142 to 157 °C (dec.). With `COc1ccccc1CCN(C)CCCCC(=O)c1ccc2c(c1)n(C)c(=O)n2C.Cl`, the melting point was 125 to 140 °C (dec.). With `Cl.O=C(CCCCNCCc1ccccc1Cl)c1ccc2[nH]c(=O)[nH]c2c1`, the melting point amounted to 233 °C.

`Cl.Cn1c(=O)n(C)c2cc(C(=O)CCCCNCCc3ccccc3)ccc21`: the melting point was 187 to 189 °C. `COc1ccc(CCNCCCCC(=O)c2cc3c4c(c2)CCN4C(=O)CC3)cc1.Cl` displayed a melting point of 179 to 181 °C. Next, `Cl.O=C(CCCCNCCc1ccc(Cl)cc1)c1cc2c3c(c1)CCN3C(=O)CC2`: 193 to 195 °C. As to `Cl.O=C(CCCCNCCc1ccccc1O)c1cc2c3c(c1)CCN3C(=O)CC2`, the melting point is 112 to 113 °C. As to `Cl.O=C(CCCCNCCc1c(Cl)cccc1Cl)c1cc2c3c(c1)CCN3C(=O)CC2`, the melting point was in the range of 171 to 174 °C. For `COc1cccc(CCNCCCCC(=O)c2cc3c4c(c2)CCN4C(=O)CC3)c1OC.Cl`, the melting point fell in the range of 154 to 156 °C. Consider `COc1ccccc1CCNCCCCC(=O)c1ccc(OC)c(S(N)(=O)=O)c1.Cl`, for which the melting point was 139 to 141 °C. Next, `COc1ccc(C(=O)CCCCNCCc2ccccc2Cl)cc1S(N)(=O)=O.Cl`: 161 to 163 °C; `COc1ccc(C(=O)CCCCNCCc2ccccc2Cl)cc1S(=O)(=O)NC(C)C.Cl`: 179 to 181 °C. Next, `Cl.NS(=O)(=O)c1cc(C(=O)CCCCNCCc2ccccc2Cl)cc2c1OCC2`: 160 to 170 °C; `COc1ccccc1CCNCCCCC(=O)c1cc2c(c(S(=O)(=O)NC(C)C)c1)OCC2.Cl`: 157 to 159 °C; `COc1ccccc1CCNCCCCC(=O)c1cc2c(c(S(N)(=O)=O)c1)OCCO2.Cl`: 166 to 168 °C.

The compound `COc1ccc(C(=O)CCCCNCCc2ccccc2)cc1NS(C)(=O)=O.Cl` showed a melting point of 131 to 133 °C. Next, `COc1ccccc1CCNCCCCC(=O)c1ccc(OC)c(NS(C)(=O)=O)c1.Cl`: 129 to 131 °C. The result for `COc1ccc(C(=O)CCCCNCCc2ccccc2Cl)cc1NS(C)(=O)=O.Cl` reads 133 to 135 °C; that for `COc1ccc(C(=O)CCCCCNCCc2ccccc2)cc1NS(C)(=O)=O.Cl`, 136 to 138 °C. Compound `COc1ccccc1CCNCCCCCC(=O)c1ccc(OC)c(NS(C)(=O)=O)c1.Cl` gave a melting point of 142 to 144 °C. Take `COc1ccccc1CCNCCCCC(=O)c1c[nH]c2ccccc12.Cl`: the melting point lay within 143 to 145 °C. Compound `COc1ccccc1CCNCCCCC(=O)c1cccs1.Cl` gave a melting point of 101 to 103 °C.

For `COc1ccccc1CCNCCCCCC(=O)c1cccs1.Cl`, the melting point fell in the range of 107 to 109 °C.

With `COc1ccccc1CCNCCCCC(=O)c1cc2c3c(c1)CCN3C(=O)CC2.Cl`, the melting point lay in the range of 94 to 96 °C. As for `COc1cccc(CCNCCCCCC(=O)c2cc3c4c(c2)CCN4C(=O)CC3)c1.Cl`, the melting point is 136 to 138 °C. In turn, `COc1ccc(CCNCCCCCC(=O)c2cc3c4c(c2)CCN4C(=O)CC3)cc1.Cl` showed a melting point of 179 to 180 °C. `Cl.O=C(CCCCCNCCc1ccccc1Cl)c1cc2c3c(c1)CCN3C(=O)CC2` came in with a melting point of 172 to 174 °C. `CN(CCCCCC(=O)c1cc2c3c(c1)CCN3C(=O)CC2)CCc1ccccc1.Cl` came in with a melting point of 83 to 85 °C.

With `Cl.O=C1NCc2cc(C(=O)CCCCNCCc3ccccc3)ccc2N1`, the melting point is 199 to 205 °C (dec.).

For `COc1ccccc1CCNCCCCC(=O)c1ccc2c(c1)CNC(=O)N2.Cl`, the melting point was 176 to 180 °C (dec.).

In the case of `Cl.O=C1NCc2cc(C(=O)CCCCNCCc3ccccc3Cl)ccc2N1`, the melting point was 176 to 185 °C (dec.). Turning to `CN(CCCCC(=O)c1ccc2c(c1)CNC(=O)N2)CCc1ccccc1.Cl`, the melting point was 164 to 166 °C. On to `CN(CCCCC(=O)c1ccc2c(c1)CN(C)C(=O)N2C)CCc1ccccc1.Cl`, for which the melting point lay in the range of 174 to 176 °C. For the compound `COc1ccccc1CCN(C)CCCCC(=O)c1ccc2c(c1)CN(C)C(=O)N2C.Cl`, the melting point lay in the range of 145 to 146 °C. On to `CN(CCCCC(=O)c1ccc2c(c1)CN(C)C(=O)N2C)CCc1ccccc1Cl.Cl`, for which the melting point lay within 187 to 188 °C. For `COc1ccccc1CCNCCCC(=O)c1cc2c3c(c1)CCN3C(=O)CC2.Cl`, the melting point lay within 165 to 167 °C.

Compound `COc1cccc(CCNCCCCC(=O)c2cc3c4c(c2)CCN4C(=O)CC3)c1.Cl` returned a melting point of 97 to 100 °C. `COc1ccccc1CCN1CCC(CCC(=O)c2cc3c4c(c2)CCN4C(=O)CC3)CC1.Cl` yielded a melting point of 209 to 211 °C. With `COc1cccc(CCN2CCC(CCC(=O)c3cc4c5c(c3)CCN5C(=O)CC4)CC2)c1.Cl`, the melting point fell in the range of 240 to 242 °C. `CCOc1ccccc1CCN1CCC(CCC(=O)c2cc3c4c(c2)CCN4C(=O)CC3)CC1.Cl` showed a melting point of 182 to 184 °C. The compound `Cl.O=C(CCC1CCN(CCc2ccccc2O)CC1)c1cc2c3c(c1)CCN3C(=O)CC2` registered a melting point of 220 to 222 °C. As for `Cc1cccc(CCN2CCC(CCC(=O)c3cc4c5c(c3)CCN5C(=O)CC4)CC2)c1.Cl`, the melting point was 197 to 199 °C. In turn, `Cl.O=C(CCC1CCN(CCc2ccc(Cl)cc2)CC1)c1cc2c3c(c1)CCN3C(=O)CC2` showed a melting point of 204 to 206 °C. Compound `Cl.O=C(CCC1CCN(CCc2c[nH]c3ccccc23)CC1)c1cc2c3c(c1)CCN3C(=O)CC2` showed a melting point of 157 to 159 °C. Compound `COc1ccc2c(c1)CCCN(CCCC(=O)c1cc3c4c(c1)CCN4C(=O)CC3)C2.Cl` had a melting point of 121 to 123 °C. The result for `Cl.O=C(CCCCNC1Cc2ccccc2C1)c1cc2c3c(c1)CCN3C(=O)CC2` reads 187 to 189 °C; that for `COc1cc2c(cc1OC)CN(CCCCC(=O)c1cc3c4c(c1)CCN4C(=O)CC3)CC2.Cl`, 215 to 217 °C; that for `Cl.O=C(CCCCCN1CCc2ccccc2CC1)c1cc2c3c(c1)CCN3C(=O)CC2`, 222 to 225 °C. For `Cl.O=C(CCCCNCCCc1ccccc1)c1cc2c3c(c1)CCN3C(=O)CC2`, the melting point was in the range of 116 to 118 °C. `Cl.O=C(CCCCNCCc1ccccc1Cl)c1cc2c3c(c1)CCN3C(=O)CC2` returned a melting point of 128 to 130 °C.

In turn, `Cl.O=C(CCCCNCCc1cccc(F)c1)c1cc2c3c(c1)CCN3C(=O)CC2` registered a melting point of 172 to 173 °C. The result for `COc1ccc(CCNCCCCC(=O)c2cc3c4c(c2)CCN4C(=O)CC3)cc1S(N)(=O)=O.Cl` reads 145 °C (dec.); that for `Cl.O=C(CCCCCN1CCCc2ccccc2C1)c1cc2c3c(c1)CCN3C(=O)CC2`, 195 to 197 °C. `Cc1ccccc1CCN1CCC(CCC(=O)c2cc3c4c(c2)CCN4C(=O)CC3)CC1.Cl`: the melting point fell in the range of 215 to 216 °C. Take `Cl.O=C(CCC1CCN(C2Cc3ccccc3C2)CC1)c1cc2c3c(c1)CCN3C(=O)CC2`: the melting point was 290 °C (dec.). `Cl.O=C(CCC1CCN(CCCc2ccccc2)CC1)c1cc2c3c(c1)CCN3C(=O)CC2` showed a melting point of 173 to 175 °C.
